{
  "source": "paper PMC9549030",
  "about": "“Structural basis for specific inhibition of the deubiquitinase UCHL1” (Nature Communications, 2022)",
  "origin": "cited, not measured here",
  "key": {"Prolyl oligopeptidase": {"target": "Prolyl oligopeptidase", "design": "method as in SI-Ref-8", "details": "ref SI-Ref-8; cited from earlier work"}, "Caspase 1": {"target": "Caspase 1", "design": "method as in SI-Ref-5", "details": "ref SI-Ref-5; cited from earlier work"}, "Cathepsin K": {"test_system": "Cathepsin K", "details": "ref SI-Ref-7; cited from earlier work"}},
  "note": "pIC50: −log10 of the molar value.",
  "data": [
    {"smiles": "N#C[C@@H]1CCCN1C(=O)[C@@H]1CCCN1C(=O)CCCc1ccccc1", "note": "[KYP-2047]", "values": [
      {"measurement": "pIC50", "setting": "Prolyl oligopeptidase", "result": 8.41}
    ]},
    {"smiles": "CC(C)(C)[C@H](NC(=O)c1ccc(N)c(Cl)c1)C(=O)N1CCC[C@H]1C(=O)N[C@H](C#N)CC(=O)O", "note": "[ML132]", "values": [
      {"measurement": "pIC50", "setting": "Caspase 1", "result": 10.64}
    ]},
    {"smiles": "CC(C)(F)C[C@H](N[C@@H](c1ccc(-c2ccc(S(C)(=O)=O)cc2)cc1)C(F)(F)F)C(=O)NC1(C#N)CC1", "note": "[Odanacatib]", "values": [
      {"measurement": "pIC50", "setting": "Cathepsin K", "result": 9.70}
    ]}
  ]
}
